{"source": "patent US8367840B2", "about": "“Composition for treating infectious diseases caused by Helicobacter” (Universidad de Zaragoza, priority 2007, dated 2013)", "key": {"H. pylori flavodoxin": {"biological_target": "T1, H. pylori flavodoxin (Helicobacter pylori, UniProt O25776)", "T1 construct": "made in house; host or cells: E. coli BL21 (flavodoxin, pET28a); E. coli JVQ2 (PFOR, pBS(KS)); E. coli BL21(DE3) (FqrB, pET29b)", "T1 sequence (O25776 1-164)": "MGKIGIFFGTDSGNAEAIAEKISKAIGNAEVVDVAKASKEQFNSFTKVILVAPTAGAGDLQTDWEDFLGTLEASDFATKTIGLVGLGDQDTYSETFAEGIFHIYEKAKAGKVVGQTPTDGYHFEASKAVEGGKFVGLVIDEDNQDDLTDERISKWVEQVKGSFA", "test": "Inhibition of the pyruvate/PFOR/flavodoxin/FqrB/NADP+ electron transfer reaction (NADPH formation at 340 nm)", "format": "biochemical", "settings": "50 μM compound; anaerobic; 10 μM Fld, 0.09 mg/ml PFOR, 0.15 μM FqrB; FIG. 1", "from_the_text": "Measurement of the absorbance (A) (AU is the unit of absorbance) at 340 nm against time (t) in seconds (s).\nFlavodoxin is an essential protein for Helicobacter pylori survival as it participates in a fundamental reaction for obtaining energy from the oxidative decarboxylation of pyruvate. In this reaction, flavodoxin transfers electrons between the PFOR enzyme and the FqrB enzyme, which releases them to NADP^+.\nThe sequential reaction of electron transfer between pyruvate, PFOR, flavodoxin, FqrB and NADP^+ (activity assay) was followed spectroscopically by the appearance of the signal at 340 nm with the formation of NADPH. The reaction mixture contained 100 mM potassium phosphate pH 7, 10 mM pyruvate, 0.18 mM CoA, 1 mM MgCl, 0.3 mM NADP^+, 0.09 mg/ml PFOR, 10 μM Fld and 0.15 μM FqrB. The mixture, except CoA, was placed in a cuvette specially designed for anaerobic conditions. Oxygen was removed by means of 5 minute cycles with alternate flows of vacuum and argon. The reaction was started by the addition of 0.18 mM coenzyme A (CoA) that was held in a compartment inside the same cuvette. The reaction completed 15 minutes after adding the CoA reagent.\nThe inhibition assays were carried out in the same conditions as the activity assays previously described, adding an additional 50 μM of the disclosed compound of the general formula shown in (II) to the reaction cuvette."}, "flavodoxin of H. pylori": {"biological_target": "T2, flavodoxin of H. pylori (Helicobacter pylori, UniProt O25776)", "T2 construct": "made in house; host or cells: E. coli BL21", "test": "Binding to flavodoxin by isothermal titration calorimetry (ITC)", "settings": "50 mM EPPS buffer, pH 9, 7% DMSO, protein around 20 μM, read-out: affinity for flavodoxin", "method": "The specific binding of the inhibitors of the present invention to flavodoxin of H. pylori was confirmed by isothermal titration calorimetry (ITC). This technique not only measures the affinity of each compound for the target protein, but also determines the contribution of the enthalpic and entropic components of binding.\nThe binding experiments were carried out in 50 mM EPPS buffer, pH 9 with 7% DMSO, with the inhibitor in the injection syringe at a concentration of 300-500 μM, and the protein around 20 μM in the measurement cell."}}}
{"smiles": "COc1ccc(CSc2ccc([N+](=O)[O-])c3nonc23)cc1", "note": "[formula (II)]", "values": [{"measurement": "inhibition of NADPH formation (product formation curve, absorbance at 340 nm)", "setting": "H. pylori flavodoxin", "result": "almost total"}, {"measurement": "Kd", "setting": "flavodoxin of H. pylori", "result": 3, "unit": "µM"}]}
